According to patent US20230391826A1, “COMPOSITIONS AND METHODS FOR TREATING DISEASES” (Sanford Burnham Prebys Medical Discovery Institute, priority 2020, published 2023):
Where “and” joins values, the source holds several entries; their conditions need not be identical. Equal entries are not always repeated.

What was measured:
[1] = biological target: T1, EphA2 extracellular domain fused to Fc (EphA2-Fc) (Homo sapiens, UniProt P29317); test: ELISA: inhibition of ephrinA5-AP binding to immobilized EphA2-Fc; details: Table 3; inhibition of EphA2-ephrinA5 interaction; averages ± SD; read-out: ICsa (nM) by ELISA
T1 construct: immobilized EphA2 extracellular domain fused to the Fc portion of an antibody (EphA2-Fc)
T1 sequence (P29317 24-537 limits assumed): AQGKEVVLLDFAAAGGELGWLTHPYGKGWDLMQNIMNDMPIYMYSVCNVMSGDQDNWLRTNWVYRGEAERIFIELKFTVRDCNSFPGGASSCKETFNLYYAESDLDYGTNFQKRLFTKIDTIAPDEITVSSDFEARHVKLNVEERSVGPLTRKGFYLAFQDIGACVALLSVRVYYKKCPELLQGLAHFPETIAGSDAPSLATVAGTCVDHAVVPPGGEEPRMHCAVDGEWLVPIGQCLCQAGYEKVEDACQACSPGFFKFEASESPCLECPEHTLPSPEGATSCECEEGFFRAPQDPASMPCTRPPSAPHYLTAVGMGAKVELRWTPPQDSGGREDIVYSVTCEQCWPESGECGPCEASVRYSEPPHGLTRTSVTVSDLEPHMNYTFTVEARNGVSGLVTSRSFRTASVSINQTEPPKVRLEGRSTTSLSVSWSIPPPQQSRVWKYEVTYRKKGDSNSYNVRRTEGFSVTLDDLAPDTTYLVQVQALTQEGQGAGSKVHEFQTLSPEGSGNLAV
Description: (§1) FIG. 1A-1C illustrates an example of Potency and selectivity of EphA2-targeting dimeric peptides. (FIG. 1A) ELISAs comparing the ability of the peptides to inhibit binding of ephrin-A5 fused to alkaline phosphatase (ephrinA5-AP) to the immobilized EphA2 extracellular domain fused to the Fc portion of an antibody (EphA2-Fc). The graphs show averages ±SD from triplicate measurements from a representative experiment. IC50 values calculated from the fitted curves in each experiment are shown. Averages of IC50 values obtained from multiple experiments are shown in panel FIG. 1B and Table 3. The 10 nM peptide concentration is outlined in red. (FIG. 1B) Plot of the average IC50 values (listed in Table 3) for different ligands. […] (FIG. 1C) EphrinA5-AP binding to EphA receptors and ephrinB2-AP binding to EphB receptors in the presence of dimeric peptides representing each of the three configurations. Values are normalized to ephrin binding without peptide. The graphs show averages and SDs from triplicate measurements (with each measurement shown as a dot).

[2] = system: other Eph receptors; test: ELISA selectivity: ephrinA5-AP binding to EphA receptors and ephrinB2-AP binding to EphB receptors; details: peptide at ~100-fold its IC50
Description: as §1
An important feature of the original YSA peptide and its monomeric derivatives is that they specifically bind to EphA2, whereas the ephrinA ligands promiscuously binds to all EphA receptors (9, 31, 37, 53). […]

[3] = biological target: T2, EphA2 (Homo sapiens, UniProt P29317, G131Y); test: Quantitative FRET of EphA2 oligomerization in transiently transfected HEK293 cells; format: cell-based
T2 construct: expressed in transfected cells; host or cells: HEK293 (HEK293T), transient transfection
T2 sequence (P29317 24-976 G131Y): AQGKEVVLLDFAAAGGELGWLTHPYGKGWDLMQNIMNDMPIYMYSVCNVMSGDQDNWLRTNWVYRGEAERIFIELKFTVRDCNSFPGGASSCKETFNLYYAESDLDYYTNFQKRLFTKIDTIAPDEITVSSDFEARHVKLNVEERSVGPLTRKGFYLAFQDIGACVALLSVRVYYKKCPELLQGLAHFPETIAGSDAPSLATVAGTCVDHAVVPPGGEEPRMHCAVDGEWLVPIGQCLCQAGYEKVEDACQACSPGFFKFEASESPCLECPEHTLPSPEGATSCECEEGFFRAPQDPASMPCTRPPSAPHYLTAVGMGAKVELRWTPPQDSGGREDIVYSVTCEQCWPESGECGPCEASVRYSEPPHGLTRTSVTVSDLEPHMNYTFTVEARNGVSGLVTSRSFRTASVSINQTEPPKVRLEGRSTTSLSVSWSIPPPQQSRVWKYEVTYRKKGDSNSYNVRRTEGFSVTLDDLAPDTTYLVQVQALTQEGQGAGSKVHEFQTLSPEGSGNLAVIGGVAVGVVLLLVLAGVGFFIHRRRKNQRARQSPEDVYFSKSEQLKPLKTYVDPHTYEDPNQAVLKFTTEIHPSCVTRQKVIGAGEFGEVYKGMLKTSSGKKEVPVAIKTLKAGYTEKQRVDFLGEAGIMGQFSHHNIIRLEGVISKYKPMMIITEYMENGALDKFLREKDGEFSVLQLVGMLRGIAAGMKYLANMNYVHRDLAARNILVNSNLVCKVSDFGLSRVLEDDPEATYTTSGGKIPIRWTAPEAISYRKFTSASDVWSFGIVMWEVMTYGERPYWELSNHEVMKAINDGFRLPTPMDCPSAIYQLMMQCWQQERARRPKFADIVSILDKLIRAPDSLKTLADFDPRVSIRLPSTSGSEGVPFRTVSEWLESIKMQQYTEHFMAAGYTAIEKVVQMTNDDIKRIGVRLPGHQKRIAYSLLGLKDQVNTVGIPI
Description: (§2) FIG. 4A-4E illustrates an example where dimers with different configurations induce EphA2 oligomerization and patching on the cell surface. (FIG. 4A-4D) Oligomerization curves comparing EphA2 WT and the G131Y and L223R/L254R/[…] interface mutants transiently expressed in HEK293 cells and treated with saturating concentrations of C-terminally linked dimer (2) or N-terminally linked dimer (5). The curves were obtained by fitting quantitative FRET data to monomer-oligomer models. […] Curves for higher order oligomerization are steeper than dimerization curves. (FIG. 4E) Two-photon integrated fluorescence images of HEK293 cells expressing EphA2-EYFP and EphA2-mTURQ and under hypo-osmotic conditions. The plasma membrane regions in the rectangular yellow outlines are enlarged in the insets at the bottom of each panel. The dimeric peptides induce patching of EphA2 WT on the plasma membrane and dimer (5) also induces patching of the EphA2 L223R/L254R/V255R mutant, while in the other cases the EphA2 interface mutations disrupt patching. The scale bar represents 10 μm for the main panels and 4 μm for the insets. # indicates the presence of EphA2 patches in the plasma membrane.
(§3) FIG. 12 illustrates an example of FRET efficiencies versus total receptor concentrations. […]
(§4) To examine the effects of dimeric peptide ligands on EphA2 oligomerization (including dimerization and higher order clustering), quantitative FRET experiments were performed in live cells. […] FRET is then measured in hundreds of individual cells with different EphA2 expression levels (FIG. 12), and the data are combined to yield average oligomeric fractions at different EphA2 concentrations (FIG. 4A-4D). […]
(§5) To obtain the data points for oligomerization curves (FIG. 12), the concentration of EphA2 in each small region of plasma membrane in which FRET efficiency was measured. Conversion of fluorescence intensity into accurate 2-dimensional EphA2 concentration requires a reversible hypo-osmotic treatment to swell the cells and smooth the wrinkled topology of their plasma membrane (FIG. 4E). […]

[4] = biological target: T3, EphA2 (Homo sapiens, UniProt P29317, L223R/L254R/V255R); test: as above; format: cell-based; details: swollen HEK293 cells
T3 construct: expressed in transfected cells; host or cells: HEK293 (HEK293T), transient transfection
T3 sequence (P29317 24-976 L223R/L254R/V255R): as the sequence (P29317 24-976 G131Y) above, with Y108G, L200R, L231R, V232R counted along it
Description: as §2, §3, §4, §5

[5] = biological target: EphA2 (Homo sapiens, UniProt P29317); test: as above; format: cell-based; parameters: expressed in transfected cells; host or cells: HEK293 (HEK293T), transient transfection
Chain of EphA2 (Homo sapiens, UniProt P29317) (P29317 24-976): as the sequence (P29317 24-976 G131Y) above, with Y108G counted along it
Description: as §2, with “The dimeric peptides induce patching of EphA2 WT on the plasma membrane and dimer (5) also induces patching of the EphA2 L223R/L254R/V255R mutant, while in the other cases the EphA2 interface mutations disrupt patching. The scale bar represents 10 μm for the main panels and 4 μm for the insets. # indicates the presence of EphA2 patches in the plasma membrane.” left out
as §4
To obtain the data points for oligomerization curves (FIG. 12), the concentration of EphA2 in each small region of plasma membrane in which FRET efficiency was measured. […]

[6] = saturating peptide, HEK293 cells

Compound: CC(C)C[C@H](NC(=O)[C@H](Cc1c[nH]c2ccccc12)NC(=O)[C@H](C)NC(=O)CNC(=O)[C@@H](N)CSSC[C@H](N)C(=O)NCC(=O)N[C@@H](C)C(=O)N[C@@H](Cc1c[nH]c2ccccc12)C(=O)N[C@@H](CC(C)C)C(=O)N[C@@H](C)C(=O)N[C@@H](Cc1ccc(O)cc1)C(=O)N1CCC[C@H]1C(=O)N[C@@H](CC(=O)O)C(=O)N[C@@H](CO)C(=O)N[C@H](C(=O)N1CCC[C@H]1C(=O)N[C@@H](Cc1ccc(O)cc1)C(=O)N[C@@H](CCCNC(=N)N)C(=O)N1CCC[C@H]1C(=O)N[C@@H](CCCCN)C(=O)O)C(C)C)C(=O)N[C@@H](C)C(=O)N[C@@H](Cc1ccc(O)cc1)C(=O)N1CCC[C@H]1C(=O)N[C@@H](CC(=O)O)C(=O)N[C@@H](CO)C(=O)N[C@H](C(=O)N1CCC[C@H]1C(=O)N[C@@H](Cc1ccc(O)cc1)C(=O)N[C@@H](CCCNC(=N)N)C(=O)N1CCC[C@H]1C(=O)N[C@@H](CCCCN)C(=O)O)C(C)C [compound 5, CGA-WLA-YRPK dimer (N-ter)]
- IC50 [1]: 0.65 nM and 0.66 nM
- selectivity for EphA2 / binding to other Eph receptors [2]: do not bind to other Eph receptors
- best-fit FRET oligomerization model, EphA2 G131Y mutant [3, 6]: dimer model
- EphA2 patches on the plasma membrane, EphA2 G131Y mutant ([3]; swollen HEK293 cells): not
- EphA2 patches on the plasma membrane, EphA2 L223R/L254R/V255R mutant [4]: causes patches
- best-fit FRET oligomerization model, EphA2 WT [5, 6]: higher order oligomer model
- EphA2 patches on the plasma membrane, EphA2 WT ([5]; swollen HEK293 cells): formation of fluorescent patches
